Experimental data reported in patent US10053428B2, “5-aminotetrahydroquinoline-2-carboxylic acids and their use” (BAYER PHARMA AKTIENGESELLSCHAFT, priority 2012, dated 2018).

Test system: recombinant guanylate cyclase reporter cell line
Experiment: sGC-activating activity in the CHO reporter cell in vitro
Format: cell-based
Details: read-out: MEC (minimum effective concentration)
Protocol: B-2. Action at a Recombinant Guanylate Cyclase Reporter Cell Line
The cellular action of the compounds according to the invention is determined at a recombinant guanylate cyclase reporter cell line, as described in F. Wunder et al., Anal. Biochem. 32, 104-112 (2005).

Compound | minimal effective concentration
O=C(O)CCCCN(CCc1ccccc1OCCCCCc1ccccc1)C1CCCc2nc(C(=O)O)ccc21 (single isomer, unassigned) [Example 10] | 300 nM
O=C(O)c1ccc(CCN(CCc2cc(F)ccc2OCc2ccc(CCc3ccc(F)cc3)cc2)C2CCCc3nc(C(=O)O)ccc32)cc1 (single isomer, unassigned) [Example 42] | 3 nM
O=C(O)CCCCN(CCc1ccccc1OCc1ccc(-c2ccc(C(F)(F)F)cc2)cc1Cl)C1CCCc2nc(C(=O)O)ccc21 (single isomer, unassigned) [Example 8] | 3 nM
O=C(O)c1ccc(CCN(CCc2ccccc2OCc2ccc(-c3nc4cc(Cl)ccc4o3)cc2)C2CCCc3nc(C(=O)O)ccc32)cc1 (single isomer, unassigned; enantiomer 2) [Example 20, 5-{[2-(4-Carboxyphenyl)ethyl][2-(2-{[4-(5-chloro-1,3-benzoxazol-2-yl)benzyl]oxy}phenyl)ethyl]-amino}-5,6,7,8-tetrahydroquinoline-2-carboxylic acid (Enantiomer 2)] | 3 nM
O=C(O)c1ccc(CCN(CCc2cc(F)ccc2OCc2ccc(CCc3ccc(F)cc3)cc2)C2CCCc3nc(C(=O)O)ccc32)cc1 (single isomer, unassigned; enantiomer 2) [Example 43, 5-([2-(4-Carboxyphenyl)ethyl]{2-[5-fluoro-2-({4-[2-(4-fluorophenyl)ethyl]benzyl}oxy)phenyl]-ethyl}amino)-5,6,7,8-tetrahydroquinoline-2-carboxylic acid (Enantiomer 2)] | 0.3 nM
N#Cc1ccc2oc(-c3ccc(COc4ccccc4CCN(CCc4ccc(C(=O)O)cc4)C4CCCc5nc(C(=O)O)ccc54)cc3)nc2c1 (single isomer, unassigned) [Example 30] | 1 nM
CC(C)(C)c1ccc(COc2ccccc2CCN(CCc2ccc(C(=O)O)cc2)C2CCCc3nc(C(=O)O)ccc32)cc1 (racemic) [Example 12, rac-5-{(2-{2-[(4-tert-Butylbenzyl)oxy]phenyl}ethyl)[2-(4-carboxyphenyl)ethyl]amino}-5,6,7,8-tetrahydroquinoline-2-carboxylic acid] | 0.3 nM
O=C(O)c1ccc(CCN(CCc2cc(F)ccc2OCc2ccc(-c3ccc(C(F)(F)F)cc3)cc2Cl)C2CCCc3nc(C(=O)O)ccc32)cc1 (single isomer, unassigned) [Example 34] | 1 nM
Cc1ccc2oc(-c3ccc(COc4ccccc4CCN(CCc4ccc(C(=O)O)cc4)C4CCCc5nc(C(=O)O)ccc54)cc3)nc2c1 (single isomer, unassigned) [Example 21] | 100 nM
O=C(O)c1ccc(CCN(CCc2cc(F)ccc2OCc2ccc(-c3nc4cc(Cl)ccc4o3)cc2)C2CCCc3nc(C(=O)O)ccc32)cc1 (single isomer, unassigned) [Example 35] | 3 nM
O=C(O)CCCCN(CCc1cc(F)ccc1OCc1ccc(-c2nc3cc(Cl)ccc3o2)cc1)C1CCCc2nc(C(=O)O)ccc21 (single isomer, unassigned) [Example 37] | 1 nM
